Assays:
[1] = from C=CCCCSC[C@@H](NC(=O)OC(C)(C)C)C(=O)N1C[C@H](Oc2nccc3cc(OC)ccc23)C[C@H]1C(=O)N[C@]1(C(=O)OCC)C[C@H]1C=C; rcm bond; Grubbs II (tricyclohexylphosphine[1,3-bis(2,4,6-trimethylphenyl)-4,5-dihydroimidazol-2-ylidene][benzylidene]ruthenium(IV) dichloride); 1,2-dichloroethane; 3.48 mM; 83.0 °C; 16.0 h
HCV replicon [2] = assay: Three-drug combination studies in HCV replicon system, combination index; format: cell-based; settings: mono-therapy in the three-drug combination experiment, HCV replicon, read-out: NS5A inhibitor EC50
Method: […] an NS5B replicase inhibitor (compound 2006; WO 03/010141), were tested in 2-drug combinations with the macrocyclic HCV NS3 protease inhibitor compound 28. In addition, compound 28 was also tested in 3-drug combinations with the NS5A and NS5B inhibitors.
For the experiments shown in Tables 8 and 9, inhibitors were tested at eleven concentrations each. 200× stock solutions of each inhibitor concentration were prepared by 2- or 3-fold dilution in DMSO prior to addition to cells/media. The drugs were tested as monotherapies and in combination with the NS3 protease inhibitor at various concentration ratios. Cells were exposed to compounds for 4 days and the amount of HCV inhibition was then determined using the FRET assay. The potential cytotoxicities of these combined agents were also analyzed in parallel by Alamar Blue staining. […] The degree of antagonism, additivity, or synergy was determined over a range of drug concentrations, and combination response curves were fit to assess the antiviral effects of the drug treatment combinations. The concentration ratios were analyzed using the method of Chou (Chou, Ting-Chao, and Rideout (Editors), (1991) Synergism and Antagonism in Chemotherapy, P. 61–101, Academic Press, New York). Tables 8 and 9 report the estimated EC50 values for the compounds tested, as well as the combination indices (CI). All estimates were computed using SAS Proc NLIN, and a two-parameter logistic. All combination indices were tested for departure from additivity using isobologram methods. Asymptotic confidence intervals were also calculated for each of the combination indices. These intervals are used to test for departure from additivity by comparing the bounds to one—a lower bound of the interval greater than 1 indicates antagonism, an upper bound of less than 1 indicates synergism, and a value of 1 contained in the interval indicates additivity.
Compound 28 was also tested in 3-drug combination experiments with the NS5A inhibitor and the NS5B inhibitor (Table 12). The starting concentrations for the mono-therapies consisted of a 0.667 μM solution of the NS5A inhibitor, a 0.3 μM solution of compound 28, and a 2.5 μM solution of the NS5B inhibitor. The starting concentration for the triple combination contained a mixture of ⅓ of each of the above concentrations. Dose response curves for all three mono-therapies and the triple combination therapy were obtained using 3-fold dilutions, and data analysis was carried out as described above for combination index experiments.

HCV replicon [3] = assay: Two-drug combination matrix studies in HCV replicon system, Universal Response Surface Approach (URSA); format: cell-based; settings: Hepatitis C virus, matrix study with NS5A inhibitor, URSA estimate (Table 10)
Method: In addition to the combination index approach, above, the Universal Response Surface Approach (URSA) was also used to assess the antiviral effects of combinations of NS5A or NS5B inhibitors with the NS3 protease inhibitor. The experiments were conducted in a matrixed format with 8 concentrations of NS3 protease inhibitor crossed against 10 concentrations of NS5A or NS5B inhibitor on each of three plates. 200× stock solutions of each inhibitor concentration were prepared by 3-fold dilution in DMSO. Effects on replication were assessed in the HCV replicon system as described above. The data was analyzed using the URSA as described in Greco, Park and Rustum (Greco, Park, Sook, and Rustum (1990) Application of a New Approach for the Quantitation of Drug Synergism to the Combination of cis-Diamminedichloroplatinum and 1-β-D-Arabinofuranosylcytosine, Cancer Research, 50, 5318–5327). The interaction of the two drugs was assessed by using non-linear regression with a bisection algorithm. Seven parameters were estimated. These include the minimal response or response in the absence of drug, the maximal response or response in the presence of infinite drug, EC50's for the two drugs, slope parameters for the two drugs, and the drug interaction parameter α which provides the assessment of synergism, antagonism or additivity. Additivity is implied when α is equal to zero, synergy if the interaction parameter is larger than zero, and antagonism when the interaction parameter is less than zero. The confidence interval for the interaction parameter is also presented. This interval is used to test for departure from additivity by comparing the bounds to zero—a lower bound of the interval greater than zero indicates synergy, an upper bound of less than zero indicates antagonism, and a value of zero contained in the interval indicates additivity.

HCV = settings: cited from earlier work
[4] = biological target: T1, HCV NS3/4A protease complex, BMS strain (genotype 1a) (UniProt P27958, C1454S/C1711G, species not given/STRAIN_BMS); assay: Recombinant HCV NS3/4A protease complex FRET peptide assay, BMS strain; format: biochemical; settings: NS3/4A BMS Strain; activity range classes
T1 construct: b1001: DNA encoding the recombinant HCV NS3/4A protease complex (amino acids 1027 to 1711) ... a three-lysine solubilizing tail was added at the 3′-end of the NS4A coding region; fused on or other part: Three-lysine solubilising tail at the C-terminus of NS4A; A His tag is implied by the pET21b vector and Ni-NTA purification
Excerpt: Recombinant HCV NS3/4A Protease Complex FRET Peptide Assay
The purpose of this in vitro assay was to measure the inhibition of HCV NS3 protease complexes, derived from the BMS strain, H77C strain or J416S strain, as described below, by compounds of the present invention. This assay provides an indication of how effective compounds of the present invention would be in inhibiting HCV proteolytic activity.
Serum from an HCV-infected patient was obtained from Dr. T. Wright, San Francisco Hospital. An engineered full-length cDNA (compliment deoxyribonucleic acid) template of the HCV genome (BMS strain) was constructed from DNA fragments obtained by reverse transcription-PCR (RT-PCR) of serum RNA (ribonucleic acid) and using primers selected on the basis of homology between other genotype 1a strains. From the determination of the entire genome sequence, a genotype 1a was assigned to the HCV isolate according to the classification of Simmonds et al. (See P Simmonds, K A Rose, S Graham, S W Chan, F McOmish, B C Dow, E A Follett, P L Yap and H Marsden, J. Clin. Microbiol., 31(6), 1493–1503 (1993)). […] The infectious clones, H77C (1a genotype) and J4L6S (1b genotype) were obtained from R. Purcell (NIH) and the sequences are published in Genbank (AAB67036, see Yanagi, M., Purcell, R. H., Emerson, S. U. and Bukh, J. Proc. Natl. Acad. Sci. U.S.A. 94(16), 8738–8743 (1997); AF054247, see Yanagi, M., St Claire, M., Shapiro, M., Emerson, S. U., Purcell, R. H. and Bukh, J, Virology 244 (1), 161–172. (1998)).
The H77C and J4L6S strains were used for production of recombinant NS3/4A protease complexes. DNA encoding the recombinant HCV NS3/4A protease complex (amino acids 1027 to 1711) for these strains were manipulated as described by P. Gallinari et al. (see Gallinari P, Paolini C, Brennan D, Nardi C, Steinkuhler C, De Francesco R. Biochemistry. 38(17):5620–32, (1999)). Briefly, a three-lysine solubilizing tail was added at the 3′-end of the NS4A coding region. The cysteine in the P1 position of the NS4A-NS4B cleavage site (amino acid 1711) was changed to a glycine to avoid the proteolytic cleavage of the lysine tag. Furthermore, a cysteine to serine mutation was introduced by PCR at amino acid position 1454 to prevent the autolytic cleavage in the NS3 helicase domain. The variant DNA fragment was cloned in the pET21b bacterial expression vector (Novagen) and the NS3/4A complex was expressed in Escherichia coli strain BL21 (DE3) (Invitrogen) following the protocol described by P. Gallinari et al. (see Gallinari P, Brennan D, Nardi C, Brunetti M, Tomei L, Steinkuhler C, De Francesco R., J. Virol. 72(8):6758–69 (1998)) with modifications. Briefly, NS3/4A expression was induced with 0.5 mM Isopropyl β-D-1-thiogalactopyranoside (IPTG) for 22 hr at 20° C. A typical fermentation (10 L) yielded approximately 80 g of wet cell paste. The cells were resuspended in lysis buffer (10 mL/g) consisting of 25 mM N-(2-Hydroxyethyl)piperazine-N′-(2-Ethane Sulfonic acid) (HEPES), pH7.5, 20% glycerol, 500 mM Sodium Chloride (NaCl), 0.5% Triton-X100, 1 microgram/milliliter (“μg/mL”) lysozyme, 5 mM Magnesium Chloride (MgCl2), 1 ug/ml DnaseI, 5 mM β-Mercaptoethanol (βME), Protease inhibitor—Ethylenediamine Tetraacetic acid (EDTA) free (Roche), homogenized and incubated for 20 mins at 4° C. The homogenate was sonicated and clarified by ultra-centrifugation at 235000 g for 1 hr at 4° C. Imidazole was added to the supernatant to a final concentration of 15 mM and the pH adjusted to 8.0. The crude protein extract was loaded on a Nickel-Nitrilotriacetic acid (Ni-NTA) column pre-equilibrated with buffer B (25 mM HEPES, pH8.0, 20% glycerol, 500 mM NaCl, 0.5% Triton-X100, 15 mM imidazole, 5 mM βME). The sample was loaded at a flow rate of 1 mL/min. The column was washed with 15 column volumes of buffer C (same as buffer B except with 0.2% Triton-X100). The protein was eluted with 5 column volumes of buffer D (same as buffer C except with 200 mM Imidazole). […]

## CCOC(=O)[C@@]12C[C@H]1C=CCCCSC[C@@H](NC(=O)OC(C)(C)C)C(=O)N1C[C@H](Oc3nccc4cc(OC)ccc34)C[C@H]1C(=O)N2
[1]
  ring closure, yield of all isomers: 73%

## O=C(Nc1ccc(C2S/C(=N\c3ccc(N4CCOCC4)cc3)N(Cc3cccnc3)C2=O)cc1)[C@@H]1CCCN1C(=O)CCc1ccccc1 (stereo partly shown) [NS5A inhibitor, reference compound]
HCV replicon [2]; Hepatitis C virus
  EC50: 5 nM
HCV replicon [2]
  EC50: 9 nM
HCV replicon [3]
  EC50: 8 nM

## pegylated alpha-interferon
HCV; clinical results, monotherapy
  efficacy as monotherapy compared with unmodified alpha-interferon: superior to unmodified alpha-interferon

## COc1ccc2c(O[C@@H]3C[C@H]4C(=O)N[C@]5(C(=O)O)C[C@H]5/C=C\COCC[C@H](NC(=O)OC(C)(C)C)C(=O)N4C3)nccc2c1 [Compound 140]
[4]
  IC50: 5000 to 50000 nM

## alpha-interferon and ribavirin [reference compound]
HCV; HCV patients
  sustained efficacy: 40 % of patients

Reference: patent publication US7173004B2, “Macrocyclic isoquinoline peptide inhibitors of hepatitis C virus” (Bristol-Myers Squibb Company, priority 2003, dated 2007)
